The values below come from patent US5624923A, “Tricyclic diazepine vasopressin antagonists and oxytocin antagonists” (priority 1995, dated 1997).

The structures appear in SMILES notation.

Assay [1] has as its target T1, V1 Receptor Subtype in Human Platelet (Homo sapiens, UniProt P37288).
T1 construct: tissue Hudson Valley Blood Services, Westchester Medical Center, Valhalla, N.Y; host or cells: human platelets (frozen platelet rich plasma)
Briefly: Binding to Vasopressin V1 receptor subtype in Human Platelet Membranes. Conditions: for IC50: human platelet membranes; for inhibition at 1 µM: 1.5 h, human platelet. The procedure:
Radioligand Binding Experiments with Human Platelet Membranes (a) Platelet Membrane Preparation: Frozen platelet rich plasma (PRP), (Platelet Source: Hudson Valley Blood Services, Westchester Medical Center, Valhalla, N.Y.) are thawed to room temperature. The tubes containing the PRP are centrifuged at 16,000×g for 10 min. at 4° C. and the supernatant fluid discarded. […] The suspension is recentrifuged at 16,000× g for 10 min. This washing step is repeated one more time. The wash discarded and the lysed pellets homogenized in low ionic strength buffer of Tris.HCl, 5.0 mM, pH 7.5 containing 5.0 mM EDTA. The homogenate is centrifuged at 39,000× g for 10 min. The resulting pellet is resuspended in Tris. […] The final pellet is resuspended in 50.0 mM Tris. HCl buffer pH 7.4 containing 120 mM NaCl and 5.0 mM KCl to give 1.0-2.0 mg protein per ml of suspension. […] Platelet Membranes […] Then add 20 μl of [^3 H]Ligand (Manning or […] Vasopressin), to give final concentrations ranging from 0.01 to 10.0 nM. Initiate the binding by adding 80.0 μl of platelet suspension (approx. 100 μg protein). Mix all reagents by pipetting the mixture up and down a few times. Non specific binding is measured in the presence of 1.0 μM of unlabeled ligand (Manning or […] Vasopressin). Let the mixture stand undisturbed at room temperature for ninety (90) min. Upon this time, rapidly filter off the incubate under vacuum suction over GF/B filters, using a Brandel Harvester. Determine the radioactivity caught on the filter disks by the addition of liquid scintillant and counting in a liquid scintillator.

Assay [2] deals with T2, Human V2 Vasopressin Receptor (Homo sapiens, UniProt P30518).
T2 construct: expressed in transfected cells; host or cells: mouse fibroblast cell line LV-2
T2 sequence (P30518 whole entry): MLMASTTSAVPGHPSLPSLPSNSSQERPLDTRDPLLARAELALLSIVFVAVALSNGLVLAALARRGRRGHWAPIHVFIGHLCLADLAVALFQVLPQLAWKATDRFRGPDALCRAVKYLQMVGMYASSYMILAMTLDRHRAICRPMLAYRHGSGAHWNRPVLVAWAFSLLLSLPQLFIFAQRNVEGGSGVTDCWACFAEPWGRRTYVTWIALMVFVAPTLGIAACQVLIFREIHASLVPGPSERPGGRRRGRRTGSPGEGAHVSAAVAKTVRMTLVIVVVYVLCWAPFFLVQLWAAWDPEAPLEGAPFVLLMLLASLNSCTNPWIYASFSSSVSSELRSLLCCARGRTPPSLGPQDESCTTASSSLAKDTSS
Briefly: Binding to Membranes of Mouse Fibroblast Cell Line (LV-2) Transfected with the cDNA Expressing the Human V2 Vasopressin Receptor. Particulars: human V2; for IC50: LV-2 cell membranes, read-out: V2 IC50 (**). The procedure: Binding to Membranes of Mouse Fibroblast Cell Line (LV-2) Transfected with the cDNA Expressing the Human V2 Vasopressin Receptor
Flasks of 175 ml capacity, containing attached cells grown to confluence, are cleared of culture medium by aspiration. The flasks containing the attached cells are rinsed with 2×5 ml of phosphate buffered saline (PBS) and the liquid aspirated off each time. Finally, 5 ml of an enzyme free dissociation Hank's based solution (Specialty Media, Inc., Lafayette, N.J.) is added and the flasks are left undisturbed for 2 min. The content of all flasks is. poured into a centrifuge tube and the cells pelleted at 300× g for 15 min. The Hank's based solution is aspirated off and the cells homogenized with a polytron at setting #6 for 10 sec in 10.0 mM Tris.HCl buffer, pH 7.4 containing 0.25M sucrose and 1.0 mM EDTA. The homogenate is centrifuged at 1500× g for 10 min to remove ghost membranes. The supernatant fluid is centrifuged at 100,000× g for 60 min. to pellet the receptor protein. Upon completion, the pellet is resuspended in a small volume of 50.0 mM Tris. HCl buffer, pH 7.4. The protein content is determined by the Lowry method and the receptor membranes are suspended in 50.0 mM Tris.HCl buffer containing 0.1 mM phenylmethylsulfonylfluoride (PMSF) and 0.2% bovine serum albumin (BSA) to give 2.5 mg receptor protein per ml of suspension.
Arginine^8, vasopressin (S.A. 75.0 Ci/mmole) at 0.8 nM and the reaction initiated by the addition of 80.0 μl of tissue membranes (200.0 μg tissue protein). The plates are left undisturbed on the bench top for 120 min to reach equilibrium. Non specific binding is assessed in the presence of 1.0 μM of unlabeled ligand, added in 20 μl volume. For test compounds, these are solubilized in 50% dimethylsulfoxide (DMSO) and added in 20.0 μl volume to a final incubation volume of 200 μl. Upon completion of binding, the content of each well is filtered off, using a Brandel® cell Harvester (Gaithersburg, Md.). The radioactivity trapped on the filter disk by the ligand-receptor complex is assessed by liquid scintillation counting in a Packard LS Counter, with an efficiency of 65% for tritium. The data are analyzed for IC50 values by the LUNDON-2 program for competition (LUNDON SOFTWARE, Ohio).

Assay [3] deals with Vasopressin V2. Nature of the assay: Vasopressin V2 Antagonist Activity in Conscious Hydrated Rats. The format is in vivo, rat. Particulars: 10 mg/kg orally, AVP 0.4 μg/kg i.p. The procedure, abridged:
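Four-hour urine output, osmolality and electrolytes (Na+, K+, Cl−) recorded in water-loaded rats (30 mL/kg deionized water orally) given AVP i.p. at 0.4 μg/kg. Test compounds were given orally at 0.1–100 mg/kg 1 h before AVP; 2–4 rats per compound.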

T1 sequence (P37288 whole entry): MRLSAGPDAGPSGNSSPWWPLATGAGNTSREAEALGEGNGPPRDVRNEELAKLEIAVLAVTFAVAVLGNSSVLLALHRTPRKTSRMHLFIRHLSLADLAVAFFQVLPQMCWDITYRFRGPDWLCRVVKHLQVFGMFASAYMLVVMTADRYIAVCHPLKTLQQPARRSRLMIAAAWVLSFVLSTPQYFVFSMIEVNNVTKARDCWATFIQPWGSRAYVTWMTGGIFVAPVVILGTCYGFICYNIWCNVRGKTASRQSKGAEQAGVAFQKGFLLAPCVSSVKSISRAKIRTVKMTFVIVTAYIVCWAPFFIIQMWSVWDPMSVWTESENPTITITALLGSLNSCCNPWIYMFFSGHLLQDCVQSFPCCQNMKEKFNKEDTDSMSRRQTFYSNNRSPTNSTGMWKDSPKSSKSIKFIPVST

Broadly, the IC50 is the concentration needed to halve the response being measured. Turning to `Cc1ccc(F)cc1C(=O)Nc1ccc(C(=O)N2Cc3ccnn3Cc3ccccc32)c(Cl)c1` [Example 518, N-[4-(4H-Pyrazolo[5,1-c][1,4]benzodiazepin-5(10H)-ylcarbonyl)-3-chlorophenyl]-5-fluoro-2-methylbenzamide], the results for the IC50 in assay [1] and in assay [2] were 0.22 µM and 0.0017 µM, respectively. Moreover, the Osmolality in assay [3] is 363 mOsm/kg. The “Urine Volume” value in assay [3] is given as 17.5 ml/4 hrs.

Regarding `O=C(Nc1ccc(C(=O)N2Cc3cccn3Cc3ccccc32)c(Cl)c1)c1ccccc1F` [Example 523, N-[4-(5H-pyrrolo[2,1-c][1,4]benzodiazepin-10(11H)-ylcarbonyl)-3-chlorophenyl]-2-fluorobenzamide], the IC50 in assay [1] was 0.11 µM. Moreover, the IC50 in assay [2] is 0.0028 µM. In addition, in assay [3], the Osmolality amounted to 1218 mOsm/kg and the “Urine Volume” value is 5 ml/4 hrs.

In assay [1], `Cc1ccc(F)cc1C(=O)Nc1ccc(C(=O)N2Cc3ccc(CN(C)C)n3Cc3ccccc32)c(Cl)c1` [Example 668, N-[4-[[3-[(dimethylamino)methyl]-5H-pyrrolo[2,1-c][1,4]benzodiazepin-10(11H)-yl]carbonyl]-3-chlorophenyl]-5-fluoro-2-methylbenzamide] yielded an IC50 of 0.17 µM. Further, the IC50 in assay [2] is 0.029 µM. Moreover, in assay [3], the Osmolality was determined as 378 mOsm/kg and the “Urine Volume” value is listed as 20.7 ml/4 hrs.

As for `Cc1ccccc1C(=O)Nc1ccc(C(=O)N2Cc3cccn3Cc3ccccc32)c(C)c1` [Example 691, N-[4-(5H-pyrrolo[2,1-c][1,4]benzodiazepin-10(11H)-ylcarbonyl)-3-methylphenyl]-2-methylbenzamide], the IC50 in assay [1] was 0.072 µM; in assay [2], 0.0029 µM.

On to `O=C(Nc1ccc(C(=O)N2Cc3cccn3Cc3ccccc32)cc1)c1ccc(F)cc1Cl` [Example 692, N-[4-(5H-pyrrolo[2,1-c][1,4]benzodiazepin-10(11H)-ylcarbonyl)phenyl]-2-chloro-4-fluorobenzamide], for which the results for the IC50 in assay [1] and in assay [2] were 0.007 µM and 0.004 µM, respectively.

As to `O=C(Nc1ccc(C(=O)N2Cc3cccn3Cc3ccccc32)cc1)c1ccc(F)cc1C(F)(F)F` [Example 693, N-[4-(5H-pyrrolo[2,1-c][1,4]benzodiazepin-10(11H)-ylcarbonyl)phenyl]-2-(trifluoromethyl)-4-fluorobenzamide], the IC50 in assay [1] came to 0.021 µM; in assay [2], 0.005 µM.

Take `COc1cc(NC(=O)c2cc(F)ccc2C)ccc1C(=O)N1Cc2cccn2Cc2ccccc21` [Example 695]: the values for the IC50 in assay [1] and in assay [2] were 0.015 µM and 0.0018 µM, respectively.

Consider `O=C(Nc1ccc(C(=O)N2Cc3cccn3Cc3ccccc32)c(Cl)c1)c1ccc(C(F)(F)F)cc1F` [Example 696, N-[4-(5H-pyrrolo[2,1-c][1,4]benzodiazepin-10(11H)-ylcarbonyl)-3-chloro-phenyl]-2-fluoro-4-(trifluoromethyl)benzamide], for which the results for the IC50 in assay [1] and in assay [2] were 12.4 µM and 0.065 µM, respectively.

Consider `Cc1ccccc1CC(=O)Nc1ccc(C(=O)N2Cc3cccn3Cc3ccccc32)c(Cl)c1` [Example 697, N-[4-(5H-pyrrolo[2,1-c][1,4]benzodiazepin-10(11H)-ylcarbonyl)-3-chloro-phenyl]-2-methylbenzeneacetamide], for which the IC50 in assay [1] was 0.62 µM; in assay [2], 0.003 µM.

On to `O=C(Nc1ccc(C(=O)N2Cc3cccn3Cc3ccccc32)c(Cl)c1)c1c(F)cccc1C(F)(F)F` [Example 698, N-[4-(5H-pyrrolo[2,1-c][1,4]benzodiazepin-10(11H)-ylcarbonyl)-3-chloro-phenyl]-2-fluoro-6-(trifluoromethyl)benzamide], for which the IC50 in assay [1] came to 1.3 µM; in assay [2], 0.013 µM.

Usually inhibition stands for the change of the read-out against control, counted positive when it falls. In assay [1], `CSc1ccc(Cl)c(C(=O)Nc2ccc(C(=O)N3Cc4cccn4Cc4ccccc43)c(Cl)c2)c1` [Example 700, N-[4-(5H-pyrrolo[2,1-c][1,4]benzodiazepin-10(11H)-ylcarbonyl)-3-chloro-phenyl]-2-chloro-5-(methylthio)benzamide] displayed an inhibition at 1 µM of 77%. For the same compound, the inhibition at 10 µM in assay [2] (10 μM) was 100%.

Turning to `COc1ccc(C(=O)Nc2ccc(C(=O)N3Cc4cccn4Cc4ccccc43)c(Cl)c2)c(Cl)c1OC` [Example 702, N-[4-(5H-pyrrolo[2,1-c][1,4]benzodiazepin-10(11H)-ylcarbonyl)-3-chloro-phenyl]-2-chloro-3,4-dimethoxybenzamide], the inhibition at 1 µM in assay [1] came to 9%; in assay [2] it was 85%.

As for `COc1cc(NC(=O)c2ccccc2C)c(Cl)cc1C(=O)N1Cc2cccn2Cc2ccccc21` [Example 703, N-[4-(5H-pyrrolo[2,1-c][1,4]benzodiazepin-10(11H)-ylcarbonyl)-6-chloro-3-methoxyphenyl]-2-methylbenzamide], the figures for the inhibition at 1 µM in assay [1] and in assay [2] were 35% and 87%, respectively.

Consider `COc1cc(C(=O)N2Cc3cccn3Cc3ccccc32)ccc1NC(=O)c1cc(C)ccc1C` [Example 704, N-[4-(5H-pyrrolo[2,1-c][1,4]benzodiazepin-10(11H)-ylcarbonyl)-2-methoxyphenyl]-2,5-dimethylbenzamide], for which the inhibition at 1 µM was determined as 100% in assay [1] and 92% in assay [2].

As for `O=C(Nc1ccc(C(=O)N2Cc3cccn3Cc3ccccc32)c(Cl)c1)c1ccc(F)cc1C(F)(F)F` [Example 707, N-[4-(5H-pyrrolo[2,1-c][1,4]benzodiazepin-10(11H)-ylcarbonyl)-3-chlorophenyl]-2-(trifluoromethyl)-4-fluorobenzamide], the IC50 is 0.2 µM in assay [1] and 0.006 µM in assay [2].

On to `CC(C)COC(=O)Nc1ccc(C(=O)N2Cc3cccn3Cc3ccccc32)cc1` [Example 714], for which the IC50 in assay [1] was 0.023 µM; in assay [2], 0.041 µM.

Take `CCCCC(=O)Nc1ccc(C(=O)N2Cc3cccn3Cc3ccccc32)cc1` [Example 715]: the results for the IC50 in assay [1] and in assay [2] were 0.0078 µM and 0.073 µM, respectively.

Regarding `COc1cc(C(=O)N2Cc3cccn3Cc3ccccc32)ccc1NC(=O)CC(C)C` [Example 716], the IC50 in assay [1] was determined as 0.002 µM; in assay [2] it was 0.031 µM.
